Where “and” joins values, the source holds several entries; their conditions need not be identical. Equal entries are not always repeated.

The format of data set [1] is physicochemical.
In the next data set the test system is Staphylococcus aureas. The class given is cell-based.
In data set [2] the test system is Pseudomonas aeruginosa and Staphylococcus aureas. Format: cell-based.
A further data set has as its system Pseudomonas aeruginosa. Format: cell-based.

Regarding `C[N+](C)(C)CCCNC(=O)CCCCCCCCC(CCCCCCCC(=O)NCCC[N+](C)(C)C)S(=O)(=O)O.[Na+]` (stereo not shown) [C18-28, C18 DiDMAPA DiQuat Sulfonate], the “Adjuvant 1 h, mL separation” value was determined as 0 mL; the “Anionic 1 h, mL separation” value is on record as 0 mL; the “Adjuvant 24 h, mL separation” value amounted to 0 mL; the “Anionic 24 h, mL separation” value is listed as 0 mL. Also, in data set [1], the “% Separation 1 h” value was 4% and 3.4%; the “% Separation 24 h” value is 4.5% and 3.9%.

As to `CC/C=C/CCCCCCCC[N+](C)(C)Cc1ccccc1` [C12-27, C12 Amine Benzyl Quat], the “Adjuvant 1 h, mL separation” value is on record as 0 mL; the “Anionic 1 h, mL separation” value is reported as 0 mL; the “Adjuvant 24 h, mL separation” value came out at 0 mL; the “Anionic 24 h, mL separation” value was found to be 0 mL. In the data set on Staphylococcus aureas, the “% Kill, Staphylococcus aureas, 400 ppm” value was determined as 63.5% and the “% Kill, Staphylococcus aureas, DI water” value is on record as 46.0%. Further, the “Overall Rating” value in data set [2] is “good”. In addition, in the data set on Pseudomonas aeruginosa, the “% Kill, Pseudomonas aeruginosa, 400 ppm” value came out at 59.5% and the “% Kill, Pseudomonas aeruginosa, DI water” value is 51.2%.

As for `C[N+](C)(C)CCCNC(=O)CCCCCCC/C=C/CCCCCCCC(=O)NCCC[N+](C)(C)C` [Mix-27, C18 DiDMAPA DiQuat], the “Adjuvant 1 h, mL separation” value was found to be 0 mL; the “Anionic 1 h, mL separation” value came to 0 mL; the “Nonionic 1 h, mL separation” value was 0 mL; the “Adjuvant 24 h, mL separation” value is on record as 0 mL. For the same compound, the “Anionic 24 h, mL separation” value came to 0 mL and the “Nonionic 24 h, mL separation” value stood at 0 mL. Moreover, in the data set with Staphylococcus aureas, the “% Kill, Staphylococcus aureas, 400 ppm” value was determined as 23.2% and the “% Kill, Staphylococcus aureas, DI water” value came out at 56.1%. Moreover, the “Overall Rating” value in data set [2] is “good”. In the data set on Pseudomonas aeruginosa, the “% Kill, Pseudomonas aeruginosa, 400 ppm” value was 23.2% and the “% Kill, Pseudomonas aeruginosa, DI water” value is 52.4%.

`C[N+](C)(CCCNC(=O)CCCCCCCCC(CCCCCCCC(=O)NCCC[N+](C)(C)CC(=O)[O-])S(=O)(=O)[O-])CC(=O)[O-].[Na+]` (stereo not shown) [C18-33, C18 DiBetaine Sulfonate]: the “Adjuvant 1 h, mL separation” value came out at 0 mL; the “Anionic 1 h, mL separation” value is reported as 0 mL; the “Nonionic 1 h, mL separation” value was determined as 1 mL; the “Adjuvant 24 h, mL separation” value stood at 0 mL. Further, the “Anionic 24 h, mL separation” value came out at 0 mL and the “Nonionic 24 h, mL separation” value stood at 1 mL. Also, in data set [1], the “% Separation 1 h” value is 4% and 3%; the “% Separation 24 h” value is 4.5% and 3.4%.

Take `CCCC(CCCCCCCC(=O)NCCC[N+](C)(C)CC(=O)[O-])S(=O)(=O)[O-].[Na+]` (stereo not shown) [C12-23, C12 DMAPA Betaine Sulfonate]: the “Adjuvant 1 h, mL separation” value is given as 0 mL; the “Anionic 1 h, mL separation” value came to 0 mL; the “Adjuvant 24 h, mL separation” value was determined as 0 mL; the “Anionic 24 h, mL separation” value was 0 mL. Besides, the “Nonionic 24 h, mL separation” value is given as 0.25 mL. In data set [1], the “% Separation 1 h” value amounted to 3%; the “% Separation 24 h” value was 3.5% and 3%.

Take “calcium alkylbenzenesulfonate [Control 1, reference compound]”: in data set [1], the “% Separation 1 h” value is recorded as less than 0.2% and the “% Separation 24 h” value is 1.3%.

Values taken from patent publication US9416099B2 (priority 2010, dated 2016).
